# Patent US12496308B2
# Where a name gives a salt, the structure may show the parent alone.
# Columns and labels:
# [1] = tested on: mouse water toxicity model for cerebral edema; experiment: Mouse water toxicity model - brain volume by MRI; format: in vivo
# Description: Mouse Water Toxicity Model—Brain Volume by Magnetic Resonance Imaging (MRI): MRI is used to measure changes in brain volume in response to water shock, using the water toxicity model. As described for the survival and brain water content studies above, mice are injected, IP, with a water bolus alone or water bolus and test compound at 0.76 mg/kg, and changes in brain volume as detected by MRI are monitored. […] High resolution T2-weighted sagittal scans (resolution=0.1 mm×0.1 mm×0.7 mm) of the mouse head are obtained prior to water injection, 5.67 min post water injection, and then every 5.2 minutes until the animal expires from the water loading. Each scan contains twenty-five 0.7 mm contiguous imaging slices of which 14-15 slices contain a portion of the brain. The cross sectional area of the brain in each imaging slice is measured by manual region-of-interest selection using ImageJ. Brain volumes are then calculated for each scan by summing the individual cross sectional brain areas and multiplying by the slice thickness (0.7 mm).
# [2] = tested on: mouse water toxicity model; experiment: Mouse water toxicity model - survival curves; conditions: 0.76 mg/kg, versus placebo
# Description: Mouse Water Toxicity Model—Survival Curves: The in vivo efficacies of the compounds are tested using the mouse water toxicity model, where a mouse is injected with water at 20% of its body weight. […] The resulting euvolemic hyponatremia rapidly leads to CE, making this a practical model to test an inhibitor of the CNS aquaporin, AQP4b.
# The ability of mice to survive H2O toxicity is determined in three experiments using 10-12 mice each (16-19 weak old male/female). Deionized water is prepared for injection with either 0.39 mg/kg phenylbenzamide (placebo) or 0.76 mg/kg with test compound.
# [3] = Stability and pH of aqueous solutions; format: physicochemical; conditions: for longer term stability of solutions: solutions at RT
# Description: Water is added and the mixture is stirred or sonicated. Yields 10 mg/ml to 20 mg/ml solutions stable for at least 24 hrs.
# [4] = tested on: middle cerebral artery occlusion (MCAo) model; experiment: MCAo stroke model - cerebral edema (hemispheric brain volume by MRI)
# Description: To mimic this injury in mice, an intraluminal monofilament model of middle cerebral artery occlusion (MCAo) is used. Occlusion is achieved by inserting a surgical filament into the external carotid artery (ECA) and threading it forward into the internal carotid artery (ICA) until the tip blocks the origin of the MCA. […] This technique is used to study a temporary occlusion in which the MCA is blocked for one hour. The filament is then removed allowing reperfusion to occur for 24 hours before the animal's brain is imaged using T2-weighted scans in a 9.4T Bruker MRI scanner at the Case Center for Imaging Research (FIG. 7). […] Solid line highlights the region of infarct in the MCAo brain.
# Cerebral Edema—Mice are given saline or treated with 2-{[3,5-bis(trifluoromethyl)phenyl]carbamoyl}-4-chlorophenyl phosphate disodium salt (Compound 5) by multi-dosing at 5 mg/kg i.p. every three hours (n=8 per treatment). […] Ipsilateral and contralateral hemispheric volume is measured from the T2-weighted MR images of mice 24 hours post-icus. Relative change in hemispheric volume is calculated as a percent of the difference between ipsilateral brain volume (Vi) and contralateral brain volume (Vc) relative to the contralateral brain volume (Percent Change in Hemispheric Brain Volume=((Vi−Vc)/Vc)×100%.
# [5] = Solid state stability (hydrolysis to the phenol) at room temperature
# [6] = tested on: middle cerebral artery occlusion (MCAo) model; experiment: MCAo stroke model - neurological outcome; conditions: mouse, in vivo
# Description: To mimic this injury in mice, an intraluminal monofilament model of middle cerebral artery occlusion (MCAo) is used. Occlusion is achieved by inserting a surgical filament into the external carotid artery (ECA) and threading it forward into the internal carotid artery (ICA) until the tip blocks the origin of the MCA. […] This technique is used to study a temporary occlusion in which the MCA is blocked for one hour. The filament is then removed allowing reperfusion to occur for 24 hours before the animal's brain is imaged using T2-weighted scans in a 9.4T Bruker MRI scanner at the Case Center for Imaging Research (FIG. 7).
# Neurological Outcome—In the same experiment as above, animals are scored for neurological outcome on a simple 5 point scale described in Manley, G. T. et al., Aquaporin-4 Deletion in Mice Reduces Brain Edema After Acute Water Intoxication and Ischemic Stroke, Nature Medicine, 6, 159-163 (2000).
# [7] = Bioconversion of prodrug salt in mouse plasma in vitro; format: in vitro ADME; conditions: 20° C.
smiles,measurement,setting,value
O=C(Nc1cc(C(F)(F)F)cc(C(F)(F)F)c1)c1cc(Cl)ccc1O [Compound 1],extent of CE during the period of observation,[1]; 0.76 mg/kg,reduced
same,rate of CE development,"[1]; 0.76 mg/kg IP, fit to single exponential model",0.032 min⁻¹
same,reduction of rate of CE development,"[1]; 0.76 mg/kg, versus no drug",2.5 fold
same,Cerebral Edema Rate by MRI,[1]; n=14 mice,0.032 min⁻¹
same,improvement of time to 50% survival,[2],roughly 52 min
same,improvement of percent survival,[2]; n=34,3.2 fold
O=C(Nc1cc(C(F)(F)F)cc(C(F)(F)F)c1)c1cc(Cl)ccc1OP(=O)([O-])[O-].[Na+].[Na+] [Compound 5],longer term stability of solutions,[3],about 1 % per day
same,relative change in ipsilateral brain volume,"[4]; 24 hours after MCAo, 5 mg/kg i.p. every three hours, n=8, ±SEM",4.2±1.7%
same,reduction in brain swelling after MCAo,[4]; versus saline controls,3.2 fold
same,hydrolysis in the solid state,[5],about 10 % per day
same,progression to severe paralysis or death,[6],did not progress into a state of severe paralysis or death
O=C(Nc1cc(C(F)(F)F)cc(C(F)(F)F)c1)c1cc(Cl)ccc1OP(=O)(O)O [Formula I],pH of solution,[3]; 5 mg/mL in 1% Na2HPO4,about 7
same,pH of solution,[3]; 5 mg/mL in 2% Na2HPO4,7.4
same,stability at RT,[5]; solid sample kept at RT,stable at RT for a week or more
O=C(Nc1cc(C(F)(F)F)cc(C(F)(F)F)c1)c1cc(Cl)ccc1OP(=O)(O)O [bis ethanolamine salt],Final pH of solutions,[3]; in water,about 7.5
same,longer term stability of solutions,[3],about 1 % per day
same,hydrolysis in the solid state,[5],about 10 % per day
same,time sufficient to render prodrug salt undetectable,[7],Less than 5 minutes
O=C(Nc1cc(C(F)(F)F)cc(C(F)(F)F)c1)c1cc(Cl)ccc1OP(=O)(O)O [mono ethanolamine salt],hydrolysis,[5]; after 5 days at RT,about 10%
O=C(Nc1cc(C(F)(F)F)cc(C(F)(F)F)c1)c1cc(Cl)ccc1OP(=O)([O-])O.[Na+] [mono sodium salt],longer term stability of solutions,[3],about 1 % per day
same,hydrolysis in the solid state,[5],about 10 % per day
